Tests used:
kale ‘Red Russian’ = assay: Yield, fresh weight of kale after insecticide, fungicide and PGRs (Example 4, Table 12); assay type: in vivo; details: 28 DA-A, Untreated Check 106.9
How it was run: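 Plants received postemergence sprays of one insecticide, one fungicide, two PGRs or two safeners in the greenhouse. About 4 weeks later they were harvested, and replicates were pooled for laboratory content analysis. Injury was rated visually on a 0–100% scale.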

basil 'Genovese' = assay: Visual injury of basil after insecticide, fungicide, PGRs, safeners (Example 4)
How it was run: (§1)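 Greenhouse postemergence applications of chlorpyrifos, chlorothalonil, mepiquat-chloride, paclobutrazol, napthalic anhydride or isoxadifen-ethyl. Visual injury (phytotoxicity, chlorosis, stunting) scored 0–100%, 0 = no response, 100 = plant death. Harvest about 4 weeks after treatment; replicates pooled for protein, mineral, amino acid, fiber and fatty acid analysis.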

kale 'Red Russian' = assay: Content analysis of kale: protein, amino acids, fiber, fatty acids, minerals (Example 4, Tables 12-14); assay type: in vivo; details: 28 DA-A
How it was run: as §1

[1] = rates g ai/ha: chlropyrifos 1120, chlorothalonil 2630, paclobutrazol 3.23, mepiquat-chloride 12.3, + NIS 0.25 % v/v
[2] = rates g ai/ha: chlropyrifos 3370, chlorothalonil 7900, paclobutrazol 9.7, mepiquat-chloride 37, + NIS 0.25 % v/v
[3] = 7 DA-A, rates g ai/ha: chlropyrifos 1120, chlorothalonil 2630, paclobutrazol 3.23, mepiquat-chloride 12.3, Isoxadifen 8, Napthalic anhydride 264, + NIS 0.25 % v/v
[4] = 7 DA-A, rates g ai/ha: chlropyrifos 3370, chlorothalonil 7900, paclobutrazol 9.7, mepiquat-chloride 37, Isoxadifen 16, Napthalic anhydride 527, + NIS 0.25 % v/v
[5] = 14 DA-A, rates g ai/ha: chlropyrifos 1120, chlorothalonil 2630, paclobutrazol 3.23, mepiquat-chloride 12.3, Isoxadifen 8, Napthalic anhydride 264, + NIS 0.25 % v/v
[6] = 14 DA-A, rates g ai/ha: chlropyrifos 3370, chlorothalonil 7900, paclobutrazol 9.7, mepiquat-chloride 37, Isoxadifen 16, Napthalic anhydride 527, + NIS 0.25 % v/v
[7] = 28 DA-A, rates g ai/ha: chlropyrifos 1120, chlorothalonil 2630, paclobutrazol 3.23, mepiquat-chloride 12.3, Isoxadifen 8, Napthalic anhydride 264, + NIS 0.25 % v/v
[8] = 28 DA-A, rates g ai/ha: chlropyrifos 3370, chlorothalonil 7900, paclobutrazol 9.7, mepiquat-chloride 37, Isoxadifen 16, Napthalic anhydride 527, + NIS 0.25 % v/v
[9] = first-listed rate g ai/ha: chlropyrifos ###, chlorothalonil ###, paclobutrazol 3.2, mepiquat-chloride 12, + NIS 0.3 % v/v
[10] = second-listed rate g ai/ha: chlropyrifos ###, chlorothalonil ###, paclobutrazol 9.7, mepiquat-chloride 37, + NIS 0.3 % v/v

Question: `C[N+]1(C)CCCCC1` [mepiquat-chloride] was tested. Which “Yield Fresh weight” value (kale ‘Red Russian’; [1]) did it give?
Answer: 101.8 grams

Question: And the “Yield Fresh weight” value (kale ‘Red Russian’; [2])?
Answer: 101.2 grams

Question: And the “Phytotoxicity Chlorosis” value (basil 'Genovese'; [3])?
Answer: 3%

Question: And the “Phytotoxicity General” value (basil 'Genovese'; [3])?
Answer: 2%

Question: And the “Phytotoxicity Stunting” value (basil 'Genovese'; [3])?
Answer: 3%

Question: What about the “Phytotoxicity Chlorosis” value (basil 'Genovese'; [4]) of the same molecule?
Answer: 5%

Question: What about the “Phytotoxicity General” value (basil 'Genovese'; [4]) of the same molecule?
Answer: 2%

Question: And the “Phytotoxicity Stunting” value (basil 'Genovese'; [4])?
Answer: 5%

Question: And the “Phytotoxicity Chlorosis” value (basil 'Genovese'; [5])?
Answer: 7%

Question: What about the “Phytotoxicity General” value (basil 'Genovese'; [5]) of the same molecule?
Answer: 5%

Question: And the “Phytotoxicity Stunting” value (basil 'Genovese'; [5])?
Answer: 3%

Question: And the “Phytotoxicity Chlorosis” value (basil 'Genovese'; [6])?
Answer: 2%

Question: What about the “Phytotoxicity General” value (basil 'Genovese'; [6]) of the same molecule?
Answer: 5%

Question: What about the “Phytotoxicity Stunting” value (basil 'Genovese'; [6]) of the same molecule?
Answer: 0%

Question: What about the “Phytotoxicity Chlorosis” value (basil 'Genovese'; [7]) of the same molecule?
Answer: 2%

Question: And the “Phytotoxicity General” value (basil 'Genovese'; [7])?
Answer: 2%

Question: And the “Phytotoxicity Stunting” value (basil 'Genovese'; [7])?
Answer: 2%

Question: What about the “Phytotoxicity Chlorosis” value (basil 'Genovese'; [8]) of the same molecule?
Answer: 2%

Question: What about the “Phytotoxicity General” value (basil 'Genovese'; [8]) of the same molecule?
Answer: 0%

Question: What about the “Phytotoxicity Stunting” value (basil 'Genovese'; [8]) of the same molecule?
Answer: 0%

Question: What about the “Alanine, Percent Increase over the Untreated Check (on a % dry matter basis)” value (kale 'Red Russian'; [9]) of the same molecule?
Answer: 5 % check

Question: And the “Aspartic acid, Percent Increase over the Untreated Check (on a % dry matter basis)” value (kale 'Red Russian'; [9])?
Answer: 6 % check

Question: And the “Cysteine, Percent Increase over the Untreated Check (on a % dry matter basis)” value (kale 'Red Russian'; [9])?
Answer: 6 % check

Question: What about the “Glutamic acid, Percent Increase over the Untreated Check (on a % dry matter basis)” value (kale 'Red Russian'; [9]) of the same molecule?
Answer: 11 % check

Question: What about the “Glycine, Percent Increase over the Untreated Check (on a % dry matter basis)” value (kale 'Red Russian'; [9]) of the same molecule?
Answer: 4 % check

Question: And the “Iso-leucine, Percent Increase over the Untreated Check (on a % dry matter basis)” value (kale 'Red Russian'; [9])?
Answer: 6 % check

Question: What about the “Leucine, Percent Increase over the Untreated Check (on a % dry matter basis)” value (kale 'Red Russian'; [9]) of the same molecule?
Answer: 4 % check

Question: What about the “Lysine, Percent Increase over the Untreated Check (on a % dry matter basis)” value (kale 'Red Russian'; [9]) of the same molecule?
Answer: 6 % check

Question: What about the “Methionine, Percent Increase over the Untreated Check (on a % dry matter basis)” value (kale 'Red Russian'; [9]) of the same molecule?
Answer: 4 % check

Question: And the “Proline, Percent Increase over the Untreated Check (on a % dry matter basis)” value (kale 'Red Russian'; [9])?
Answer: 8 % check

Question: What about the “Threonine, Percent Increase over the Untreated Check (on a % dry matter basis)” value (kale 'Red Russian'; [9]) of the same molecule?
Answer: 6 % check

Question: And the “Total Amino acids, Percent Increase over the Untreated Check (on a % dry matter basis)” value (kale 'Red Russian'; [9])?
Answer: 6 % check

Question: What about the “Total Protein, Percent Increase over the Untreated Check (on a % dry matter basis)” value (kale 'Red Russian'; [9]) of the same molecule?
Answer: 4 % check

Question: And the “Valine, Percent Increase over the Untreated Check (on a % dry matter basis)” value (kale 'Red Russian'; [9])?
Answer: 5 % check

Question: What about the “ADF, Percent Increase Over the Untreated Check (on a % dry matter basis)” value (kale 'Red Russian'; [1]) of the same molecule?
Answer: 7 % check

Question: What about the “Calcium, Percent Increase Over the Untreated Check (on a % dry matter basis)” value (kale 'Red Russian'; [1]) of the same molecule?
Answer: −4 % check

Question: And the “Copper, Percent Increase Over the Untreated Check (on a % dry matter basis)” value (kale 'Red Russian'; [1])?
Answer: 0 % check

Question: What about the “Iron, Percent Increase Over the Untreated Check (on a % dry matter basis)” value (kale 'Red Russian'; [1]) of the same molecule?
Answer: −5 % check

Question: And the “Magnesium, Percent Increase Over the Untreated Check (on a % dry matter basis)” value (kale 'Red Russian'; [1])?
Answer: −3 % check

Question: And the “Manganese, Percent Increase Over the Untreated Check (on a % dry matter basis)” value (kale 'Red Russian'; [1])?
Answer: −2 % check

Question: What about the “NDF, Percent Increase Over the Untreated Check (on a % dry matter basis)” value (kale 'Red Russian'; [1]) of the same molecule?
Answer: −2 % check

Question: And the “Phosphorous, Percent Increase Over the Untreated Check (on a % dry matter basis)” value (kale 'Red Russian'; [1])?
Answer: 1 % check

Question: What about the “Potassium, Percent Increase Over the Untreated Check (on a % dry matter basis)” value (kale 'Red Russian'; [1]) of the same molecule?
Answer: −5 % check

Question: What about the “Sodium, Percent Increase Over the Untreated Check (on a % dry matter basis)” value (kale 'Red Russian'; [1]) of the same molecule?
Answer: 4 % check

Question: What about the “Zinc, Percent Increase Over the Untreated Check (on a % dry matter basis)” value (kale 'Red Russian'; [1]) of the same molecule?
Answer: −5 % check

Question: And the “ADF, Percent Increase Over the Untreated Check (on a % dry matter basis)” value (kale 'Red Russian'; [2])?
Answer: −2 % check

Question: What about the “Calcium, Percent Increase Over the Untreated Check (on a % dry matter basis)” value (kale 'Red Russian'; [2]) of the same molecule?
Answer: −3 % check

Question: And the “Copper, Percent Increase Over the Untreated Check (on a % dry matter basis)” value (kale 'Red Russian'; [2])?
Answer: −6 % check

Question: What about the “Iron, Percent Increase Over the Untreated Check (on a % dry matter basis)” value (kale 'Red Russian'; [2]) of the same molecule?
Answer: −4 % check

Question: And the “Magnesium, Percent Increase Over the Untreated Check (on a % dry matter basis)” value (kale 'Red Russian'; [2])?
Answer: 0 % check

Question: What about the “Manganese, Percent Increase Over the Untreated Check (on a % dry matter basis)” value (kale 'Red Russian'; [2]) of the same molecule?
Answer: −7 % check

Question: What about the “NDF, Percent Increase Over the Untreated Check (on a % dry matter basis)” value (kale 'Red Russian'; [2]) of the same molecule?
Answer: −7 % check

Question: What about the “Phosphorous, Percent Increase Over the Untreated Check (on a % dry matter basis)” value (kale 'Red Russian'; [2]) of the same molecule?
Answer: 1 % check

Question: What about the “Potassium, Percent Increase Over the Untreated Check (on a % dry matter basis)” value (kale 'Red Russian'; [2]) of the same molecule?
Answer: −1 % check

Question: What about the “Sodium, Percent Increase Over the Untreated Check (on a % dry matter basis)” value (kale 'Red Russian'; [2]) of the same molecule?
Answer: 4 % check

Question: And the “Zinc, Percent Increase Over the Untreated Check (on a % dry matter basis)” value (kale 'Red Russian'; [2])?
Answer: −10 % check

Question: And the “Alanine, Percent Increase over the Untreated Check (on a % dry matter basis)” value (kale 'Red Russian'; [10])?
Answer: −4 % check

Question: What about the “Aspartic acid, Percent Increase over the Untreated Check (on a % dry matter basis)” value (kale 'Red Russian'; [10]) of the same molecule?
Answer: −2 % check

From patent US20110053773A1, “METHODS OF IMPROVING NUTRITIONAL VALUE OF PLANTS” (UNIVERSITY OF TENNESSEE RESEARCH FOUNDATION, priority 2009, published 2011)
